How the values were obtained:
Human δ-opioid (DOP) = biological target: T1, Human δ-opioid (DOP) (Homo sapiens, UniProt P41143); test: Radioligand binding, human δ-opioid (DOP) membranes, FlashPlate, [3H]-Bremazocine; details: compound at 10 μM; [3H]-Bremazocine
T1 construct: purchased Perkin Elmer Biosignal
Outline: (§1)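 Cloned human receptor membranes were coated onto FlashPlate wells and incubated with radioligand and compound (added from a 0.5 mM DMSO daughter plate) for 1 hour at room temperature in the dark. Scintillation counting gave percent inhibition, with DMSO defining total and reference ligand defining non-specific binding.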

[1] = biological target: T2, Human melanin-concentrating hormone (MCH1) (Homo sapiens, UniProt Q99705); test: Radioligand binding, human melanin-concentrating hormone MCH1 membranes, FlashPlate, [125I]-S36057; details: compound at 10 μM; [125I]-S36057
T2 construct: purchased Perkin Elmer Biosignal
T2 sequence (Q99705 whole entry): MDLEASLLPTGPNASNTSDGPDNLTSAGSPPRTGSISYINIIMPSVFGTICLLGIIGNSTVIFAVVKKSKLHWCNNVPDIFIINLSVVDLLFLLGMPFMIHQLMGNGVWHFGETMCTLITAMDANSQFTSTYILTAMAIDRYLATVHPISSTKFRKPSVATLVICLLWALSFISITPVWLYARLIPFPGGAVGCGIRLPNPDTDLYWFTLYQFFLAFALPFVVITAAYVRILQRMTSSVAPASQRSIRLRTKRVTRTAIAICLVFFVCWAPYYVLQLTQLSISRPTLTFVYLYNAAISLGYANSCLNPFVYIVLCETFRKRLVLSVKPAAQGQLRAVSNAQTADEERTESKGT
Outline: as §1

Human μ-opioid (MOP) = biological target: T3, Human μ-opioid (MOP) (Homo sapiens, UniProt P35372); test: Radioligand binding, human μ-opioid (MOP) membranes, FlashPlate, [3H]-Naloxone; details: compound at 10 μM; [3H]-Naloxone
T3 construct: purchased Perkin Elmer Biosignal
T3 sequence (P35372 whole entry): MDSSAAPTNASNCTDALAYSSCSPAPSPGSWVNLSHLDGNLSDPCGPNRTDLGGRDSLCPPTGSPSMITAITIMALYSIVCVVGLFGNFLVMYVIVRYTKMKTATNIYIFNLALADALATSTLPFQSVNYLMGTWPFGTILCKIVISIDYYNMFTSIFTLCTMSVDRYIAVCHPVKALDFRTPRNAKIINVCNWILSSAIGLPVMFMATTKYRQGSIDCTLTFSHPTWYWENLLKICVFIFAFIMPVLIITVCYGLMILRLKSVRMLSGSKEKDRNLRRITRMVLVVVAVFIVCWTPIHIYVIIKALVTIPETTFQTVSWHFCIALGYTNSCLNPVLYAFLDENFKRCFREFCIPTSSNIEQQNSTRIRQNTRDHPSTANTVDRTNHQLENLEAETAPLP
Outline: as §1

Human Melanocortin (MC4) = biological target: T4, Human Melanocortin (MC4) (Homo sapiens, UniProt P32245); test: Radioligand binding, human melanocortin MC4 membranes, FlashPlate, [125I]-NDP-αMSH; details: compound at 10 μM; [125I]-NDP-αMSH
T4 construct: purchased Perkin Elmer Biosignal
T4 sequence (P32245 whole entry): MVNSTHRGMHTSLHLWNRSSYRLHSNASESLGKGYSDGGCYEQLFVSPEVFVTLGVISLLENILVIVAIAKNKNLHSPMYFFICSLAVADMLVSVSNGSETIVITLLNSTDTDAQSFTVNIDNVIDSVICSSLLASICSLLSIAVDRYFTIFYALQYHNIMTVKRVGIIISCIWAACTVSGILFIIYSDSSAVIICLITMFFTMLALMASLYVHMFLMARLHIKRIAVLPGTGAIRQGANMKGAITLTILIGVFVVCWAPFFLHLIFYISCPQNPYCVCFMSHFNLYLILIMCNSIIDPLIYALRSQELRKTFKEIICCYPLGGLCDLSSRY
Outline: as §1

Human Melanocortin (MC3) = biological target: T5, Human Melanocortin (MC3) (Homo sapiens, UniProt P41968); test: Radioligand binding, human melanocortin MC3 membranes, FlashPlate, [125I]-NDP-αMSH; details: compound at 10 μM; [125I]-NDP-αMSH
T5 construct: purchased Perkin Elmer Biosignal
T5 sequence (P41968 whole entry): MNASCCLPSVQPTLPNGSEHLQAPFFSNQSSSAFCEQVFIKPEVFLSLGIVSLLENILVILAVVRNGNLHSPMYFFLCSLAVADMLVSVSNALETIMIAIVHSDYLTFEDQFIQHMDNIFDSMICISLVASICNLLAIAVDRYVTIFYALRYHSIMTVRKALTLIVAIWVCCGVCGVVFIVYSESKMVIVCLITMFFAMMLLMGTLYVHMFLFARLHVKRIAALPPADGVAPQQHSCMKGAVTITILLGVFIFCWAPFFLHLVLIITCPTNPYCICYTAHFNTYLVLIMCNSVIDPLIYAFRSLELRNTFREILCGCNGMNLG
Outline: as §1

Human melanocortin (MC5) = biological target: T6, Human melanocortin (MC5) (Homo sapiens, UniProt P33032); test: Radioligand binding, human melanocortin MC5 membranes, FlashPlate, [125I]-NDP-αMSH; details: compound at 10 μM; [125I]-NDP-αMSH
T6 construct: purchased Perkin Elmer Biosignal
T6 sequence (P33032 whole entry): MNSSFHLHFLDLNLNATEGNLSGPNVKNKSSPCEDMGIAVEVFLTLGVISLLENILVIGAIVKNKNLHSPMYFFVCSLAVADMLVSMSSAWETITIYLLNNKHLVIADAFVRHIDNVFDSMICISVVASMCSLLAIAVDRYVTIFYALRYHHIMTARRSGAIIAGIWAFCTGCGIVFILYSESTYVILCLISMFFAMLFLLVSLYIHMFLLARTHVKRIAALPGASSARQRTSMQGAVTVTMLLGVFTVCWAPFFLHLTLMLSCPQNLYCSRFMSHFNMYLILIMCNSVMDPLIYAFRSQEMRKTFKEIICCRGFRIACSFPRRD
Outline: as §1

Human opioid (ORL1) = biological target: T7, Human opioid (ORL1) (Homo sapiens, UniProt P41146); test: Radioligand binding, human opioid ORL1 membranes, FlashPlate, [125I]-Nociceptin; details: compound at 10 μM; [125I]-Nociceptin
T7 construct: purchased Perkin Elmer Biosignal
T7 sequence (P41146 whole entry): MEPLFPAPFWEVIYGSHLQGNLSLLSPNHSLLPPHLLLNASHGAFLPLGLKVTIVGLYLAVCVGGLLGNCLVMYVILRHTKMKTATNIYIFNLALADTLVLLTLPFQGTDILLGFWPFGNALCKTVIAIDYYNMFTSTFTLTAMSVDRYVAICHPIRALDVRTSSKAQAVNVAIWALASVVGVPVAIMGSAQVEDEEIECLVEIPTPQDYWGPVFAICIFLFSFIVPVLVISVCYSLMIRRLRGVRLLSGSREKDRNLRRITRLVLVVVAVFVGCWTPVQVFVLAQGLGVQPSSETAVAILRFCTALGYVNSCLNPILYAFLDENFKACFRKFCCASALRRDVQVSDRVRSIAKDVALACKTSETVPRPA
Outline: as §1

Human κ-Opioid (KOP) = biological target: T8, Human κ-Opioid (KOP) (Homo sapiens, UniProt P41145); test: Radioligand binding, human κ-opioid (KOP) membranes, filtration, [3H]-Diprenorphine; details: compound at 10 μM; [3H]-Diprenorphine
T8 construct: purchased Perkin Elmer Biosignal
T8 sequence (P41145 whole entry): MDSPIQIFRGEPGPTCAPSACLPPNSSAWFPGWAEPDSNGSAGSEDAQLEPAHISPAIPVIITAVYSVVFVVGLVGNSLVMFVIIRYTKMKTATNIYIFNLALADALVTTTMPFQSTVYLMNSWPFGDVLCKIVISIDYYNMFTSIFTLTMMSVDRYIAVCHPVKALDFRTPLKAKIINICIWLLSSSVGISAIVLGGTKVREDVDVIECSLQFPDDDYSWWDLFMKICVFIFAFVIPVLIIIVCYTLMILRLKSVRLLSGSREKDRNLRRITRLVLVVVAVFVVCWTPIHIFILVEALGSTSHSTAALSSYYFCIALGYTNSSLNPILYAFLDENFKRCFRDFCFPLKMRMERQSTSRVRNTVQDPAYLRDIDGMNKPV
Outline: (§2)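 Filtration binding on cloned human receptor membranes (1 Unit/well), [125I]-Substance P for NK1 and [3H]-Diprenorphine for KOP, 1 h at room temperature. Filters PEI-presoaked, washed with cold 50 mM Tris-HCl pH 7.4, counted by scintillation; percent inhibition calculated, reference ligand defining non-specific binding.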

Human neurokinin (NK1) = biological target: T9, Human neurokinin (NK1) (Homo sapiens, UniProt P25103); test: Radioligand binding, human neurokinin NK1 membranes, filtration, [125I]-Substance P; details: compound at 10 μM; [125I]-Substance P
T9 construct: purchased Perkin Elmer Biosignal
T9 sequence (P25103 whole entry): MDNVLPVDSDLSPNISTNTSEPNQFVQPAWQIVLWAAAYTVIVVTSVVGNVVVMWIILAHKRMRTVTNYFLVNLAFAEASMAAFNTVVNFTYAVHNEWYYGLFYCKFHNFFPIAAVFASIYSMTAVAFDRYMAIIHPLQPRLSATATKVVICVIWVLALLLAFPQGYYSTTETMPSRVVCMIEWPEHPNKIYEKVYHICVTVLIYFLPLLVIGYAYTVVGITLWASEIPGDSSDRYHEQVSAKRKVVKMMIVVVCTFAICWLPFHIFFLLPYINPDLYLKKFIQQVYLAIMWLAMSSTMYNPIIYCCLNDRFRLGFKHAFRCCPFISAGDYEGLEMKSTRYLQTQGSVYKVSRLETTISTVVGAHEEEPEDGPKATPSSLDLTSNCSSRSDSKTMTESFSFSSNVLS
Outline: as §2

[2] = biological target: T10, Human neuropeptide Y (NPY-Y1) (Homo sapiens, UniProt P25929); test: Radioligand binding, human neuropeptide Y NPY-Y1 membranes, FlashPlate, [125I]-PYY; details: compound at 10 μM; [125I]-PYY
T10 construct: purchased Perkin Elmer Biosignal
T10 sequence (P25929 1-384): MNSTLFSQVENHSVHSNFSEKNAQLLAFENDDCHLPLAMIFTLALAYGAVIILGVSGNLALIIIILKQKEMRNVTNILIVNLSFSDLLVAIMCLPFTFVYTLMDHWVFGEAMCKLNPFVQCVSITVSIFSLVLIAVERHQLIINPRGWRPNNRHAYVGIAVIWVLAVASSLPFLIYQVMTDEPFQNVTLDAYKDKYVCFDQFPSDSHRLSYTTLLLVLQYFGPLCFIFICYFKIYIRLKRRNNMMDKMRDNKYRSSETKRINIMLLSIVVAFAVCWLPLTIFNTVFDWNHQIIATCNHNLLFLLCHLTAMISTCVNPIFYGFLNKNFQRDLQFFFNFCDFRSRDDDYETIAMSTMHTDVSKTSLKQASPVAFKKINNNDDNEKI
Outline: as §1

Mouse urotensin (mUR2) = biological target: T11, Mouse urotensin (mUR2) (Mus musculus, UniProt Q8VIH9); test: Radioligand binding, mouse urotensin mUR2 membranes, FlashPlate, [125I]-Urotensin II; details: compound at 10 μM; [125I]-Urotensin II
T11 construct: purchased Perkin Elmer Biosignal
T11 sequence (Q8VIH9 1-385): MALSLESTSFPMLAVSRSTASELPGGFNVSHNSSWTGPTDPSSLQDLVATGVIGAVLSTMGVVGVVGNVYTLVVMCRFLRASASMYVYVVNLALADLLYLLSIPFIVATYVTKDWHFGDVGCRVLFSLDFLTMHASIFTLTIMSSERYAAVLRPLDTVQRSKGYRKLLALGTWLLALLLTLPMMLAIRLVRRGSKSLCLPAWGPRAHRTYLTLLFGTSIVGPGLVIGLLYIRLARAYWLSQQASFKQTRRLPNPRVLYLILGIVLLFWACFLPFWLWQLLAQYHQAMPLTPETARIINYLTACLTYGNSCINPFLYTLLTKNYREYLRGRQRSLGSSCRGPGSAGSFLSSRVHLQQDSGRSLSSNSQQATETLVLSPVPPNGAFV
Outline: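 Cloned mouse urotensin (mUR2) receptor membranes from Perkin Elmer Biosignal were immobilized in FlashPlate microplates using a proprietary coating. Each well got 19.5 μl buffer, then 0.5 μl of DMSO, reference ligand, or compound. Adding 5 μl of [125I]-Urotensin II, diluted to 5× final concentration in binding buffer, started binding. Plates were sealed with TopSeal-A and incubated 1 hour at room temperature in the dark. Wells were counted for 30 seconds each on a TopCount after a 60-second delay, and percentage inhibition was calculated.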

T1 sequence (P41143 whole entry): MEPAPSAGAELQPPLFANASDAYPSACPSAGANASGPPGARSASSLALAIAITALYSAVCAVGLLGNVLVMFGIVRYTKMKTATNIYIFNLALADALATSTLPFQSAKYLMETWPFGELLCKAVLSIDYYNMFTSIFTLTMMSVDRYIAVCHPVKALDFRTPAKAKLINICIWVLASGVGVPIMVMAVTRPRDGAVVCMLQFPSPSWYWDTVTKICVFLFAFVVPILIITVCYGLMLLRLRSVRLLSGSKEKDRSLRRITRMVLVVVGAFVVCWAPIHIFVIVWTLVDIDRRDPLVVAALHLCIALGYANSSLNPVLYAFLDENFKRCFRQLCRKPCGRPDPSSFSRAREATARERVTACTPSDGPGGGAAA

SMILES	A1: inhibition of radioligand binding, human δ-opioid (DOP) (Human δ-opioid (DOP))	A6: inhibition of radioligand binding, human melanin-concentrating hormone (MCH1) [1]	A7: inhibition of radioligand binding, human μ-opioid (MOP) (Human μ-opioid (MOP))	A4: inhibition of radioligand binding, human melanocortin (MC4) (Human Melanocortin (MC4))	A3: inhibition of radioligand binding, human melanocortin (MC3) (Human Melanocortin (MC3))	A5: inhibition of radioligand binding, human melanocortin (MC5) (Human melanocortin (MC5))	A10: inhibition of radioligand binding, human opioid (ORL1) (Human opioid (ORL1))	A2: inhibition of radioligand binding, human κ-opioid (KOP) (Human κ-Opioid (KOP))	A8: inhibition of radioligand binding, human neurokinin (NK1) (Human neurokinin (NK1))	A9: inhibition of radioligand binding, human neuropeptide Y (NPY-Y1) [2]	A11: inhibition of radioligand binding, mouse urotensin (mUR2) (Mouse urotensin (mUR2))
CSC1O[C@H](COCc2ccc(Cl)cc2)[C@@H](O)[C@@H](OCc2ccc(-c3ccccc3)cc2)[C@H]1NC(=O)CNC(=N)N (stereo partly shown) [compound 289]	− (“−” indicates less than 50% inhibition at 10 μM)	− (“−” indicates less than 50% inhibition at 10 μM)	− (“−” indicates less than 50% inhibition at 10 μM)	+ (“+” indicates greater than 50% inhibition at 10 μM)	− (“−” indicates less than 50% inhibition at 10 μM)	+ (“+” indicates greater than 50% inhibition at 10 μM)	− (“−” indicates less than 50% inhibition at 10 μM)	− (“−” indicates less than 50% inhibition at 10 μM)	+ (“+” indicates greater than 50% inhibition at 10 μM)	− (“−” indicates less than 50% inhibition at 10 μM)	− (“−” indicates less than 50% inhibition at 10 μM)
CSC1O[C@H](COCc2ccc(Cl)cc2)[C@@H](O)[C@@H](OCc2ccc(-c3ccccc3)cc2)[C@H]1NC(=O)CCN (stereo partly shown) [compound 290]	− (“−” indicates less than 50% inhibition at 10 μM)	− (“−” indicates less than 50% inhibition at 10 μM)	− (“−” indicates less than 50% inhibition at 10 μM)	− (“−” indicates less than 50% inhibition at 10 μM)	− (“−” indicates less than 50% inhibition at 10 μM)	+ (“+” indicates greater than 50% inhibition at 10 μM)	− (“−” indicates less than 50% inhibition at 10 μM)	− (“−” indicates less than 50% inhibition at 10 μM)	+ (“+” indicates greater than 50% inhibition at 10 μM)	− (“−” indicates less than 50% inhibition at 10 μM)	− (“−” indicates less than 50% inhibition at 10 μM)
